The record followed here is publication PMC9719519, “Non-classical ferroptosis inhibition by a small molecule targeting PHB2” (Nature Communications, 2022).

The structures appear in SMILES notation.

What all share (test): biochemical
Holding throughout (design): Eurofins recombinant human kinase profiling, remaining kinase activity as % of control, 10 uM ATP
Details in all cases: ATP 10 uM; read-out: %Ctrl@10 μM

The target of one assay is JAK1(h) (Homo sapiens, UniProt P23458). In a few lines:
(§1)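 Activity measured in a commercial panel of 401 recombinant human protein kinases run as a kinase profiling service.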

A further assay has as its target CDK6/cyclinD3(h) (Homo sapiens, UniProt Q00534). In a few lines: as §1
A further assay deals with CDK16/cyclinY(h) (Homo sapiens, UniProt Q00536). Put shortly:
as §1

In the next assay the target is SLK(h) (Homo sapiens, UniProt Q9H2G2). Put shortly:
as §1

The target in the next assay is Haspin(h) (Homo sapiens, UniProt Q8TF76). Put shortly: as §1
For another assay, the target named is T1, DNA-PK(h) (Homo sapiens, UniProt P78527).
T1 construct: gene PRKDC
In a few lines: as §1

In another assay the target is FGFR4(h) (Homo sapiens, UniProt P22455). In a few lines: as §1
For a further assay, the target named is Flt4(h) (Homo sapiens, UniProt P35916). Put shortly: as §1
The target of the next assay is ALK(h) (Homo sapiens, UniProt Q9UM73). Put shortly:
as §1

The target in a further assay is BTK(h) (Homo sapiens, UniProt Q06187). Put shortly: as §1
The next assay has as its target T2, ZIPK(h) (Homo sapiens, UniProt O43293).
T2 construct: gene DAPK3
In a few lines: as §1

A further assay deals with T3, MSSK1(h) (Homo sapiens, UniProt Q9UPE1).
T3 construct: gene SRPK3
In a few lines:
as §1

The next assay concerns the target MOK(h) (Homo sapiens, UniProt Q9UQ07). Put shortly: as §1
Another assay has as its target T4, PDHK4(h) (Homo sapiens, UniProt Q16654).
T4 construct: gene PDK4
Put shortly: as §1

In the next assay the target is T5, p70S6K(h) (Homo sapiens, UniProt P23443).
T5 construct: gene RPS6KB1
In a few lines: as §1

The target of another assay is T6, PDGFRα(h) (Homo sapiens, UniProt P16234).
T6 construct: gene PDGFRA
In a few lines: as §1

For another assay, the target named is Blk(h) (Homo sapiens, UniProt P51451). In a few lines:
as §1

The target in another assay is T7, CK1γ2(h) (Homo sapiens, UniProt P78368).
T7 construct: gene CSNK1G2
Put shortly:
as §1

In another assay the target is HIPK4(h) (Homo sapiens, UniProt Q8NE63). Put shortly: as §1
The target of a further assay is DDR2(h) (Homo sapiens, UniProt Q16832). Put shortly: as §1
The target of another assay is CDK18/cyclinY(h) (Homo sapiens, UniProt Q07002). In a few lines: as §1
The next assay has as its target mTOR/FKBP12(h) (Homo sapiens, UniProt P42345). In a few lines: as §1
For a further assay, the target named is KDR(h) (Homo sapiens, UniProt P35968). Put shortly:
as §1

Haspin(h), sequence (Q8TF76 whole entry): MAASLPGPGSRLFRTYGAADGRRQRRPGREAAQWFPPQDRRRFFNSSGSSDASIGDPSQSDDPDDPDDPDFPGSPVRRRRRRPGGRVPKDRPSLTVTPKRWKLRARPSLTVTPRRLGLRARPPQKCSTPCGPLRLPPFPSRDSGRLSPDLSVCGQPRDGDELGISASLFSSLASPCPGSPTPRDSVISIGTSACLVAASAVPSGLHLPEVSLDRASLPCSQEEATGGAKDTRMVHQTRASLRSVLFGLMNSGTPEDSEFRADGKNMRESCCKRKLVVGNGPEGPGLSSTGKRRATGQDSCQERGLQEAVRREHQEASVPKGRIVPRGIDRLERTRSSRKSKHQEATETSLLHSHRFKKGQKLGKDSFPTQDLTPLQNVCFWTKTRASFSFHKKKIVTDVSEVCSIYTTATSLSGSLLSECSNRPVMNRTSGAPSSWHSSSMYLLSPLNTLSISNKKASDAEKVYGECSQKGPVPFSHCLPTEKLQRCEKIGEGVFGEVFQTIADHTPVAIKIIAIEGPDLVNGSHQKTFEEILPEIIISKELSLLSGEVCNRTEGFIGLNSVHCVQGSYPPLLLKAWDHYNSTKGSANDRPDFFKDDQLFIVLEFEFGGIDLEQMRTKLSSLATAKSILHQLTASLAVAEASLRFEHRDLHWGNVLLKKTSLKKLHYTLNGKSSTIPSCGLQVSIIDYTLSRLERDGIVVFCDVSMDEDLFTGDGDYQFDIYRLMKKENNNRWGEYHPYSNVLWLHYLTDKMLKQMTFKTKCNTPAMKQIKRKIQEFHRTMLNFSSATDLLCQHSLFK
SLK(h), sequence (Q9H2G2 whole entry): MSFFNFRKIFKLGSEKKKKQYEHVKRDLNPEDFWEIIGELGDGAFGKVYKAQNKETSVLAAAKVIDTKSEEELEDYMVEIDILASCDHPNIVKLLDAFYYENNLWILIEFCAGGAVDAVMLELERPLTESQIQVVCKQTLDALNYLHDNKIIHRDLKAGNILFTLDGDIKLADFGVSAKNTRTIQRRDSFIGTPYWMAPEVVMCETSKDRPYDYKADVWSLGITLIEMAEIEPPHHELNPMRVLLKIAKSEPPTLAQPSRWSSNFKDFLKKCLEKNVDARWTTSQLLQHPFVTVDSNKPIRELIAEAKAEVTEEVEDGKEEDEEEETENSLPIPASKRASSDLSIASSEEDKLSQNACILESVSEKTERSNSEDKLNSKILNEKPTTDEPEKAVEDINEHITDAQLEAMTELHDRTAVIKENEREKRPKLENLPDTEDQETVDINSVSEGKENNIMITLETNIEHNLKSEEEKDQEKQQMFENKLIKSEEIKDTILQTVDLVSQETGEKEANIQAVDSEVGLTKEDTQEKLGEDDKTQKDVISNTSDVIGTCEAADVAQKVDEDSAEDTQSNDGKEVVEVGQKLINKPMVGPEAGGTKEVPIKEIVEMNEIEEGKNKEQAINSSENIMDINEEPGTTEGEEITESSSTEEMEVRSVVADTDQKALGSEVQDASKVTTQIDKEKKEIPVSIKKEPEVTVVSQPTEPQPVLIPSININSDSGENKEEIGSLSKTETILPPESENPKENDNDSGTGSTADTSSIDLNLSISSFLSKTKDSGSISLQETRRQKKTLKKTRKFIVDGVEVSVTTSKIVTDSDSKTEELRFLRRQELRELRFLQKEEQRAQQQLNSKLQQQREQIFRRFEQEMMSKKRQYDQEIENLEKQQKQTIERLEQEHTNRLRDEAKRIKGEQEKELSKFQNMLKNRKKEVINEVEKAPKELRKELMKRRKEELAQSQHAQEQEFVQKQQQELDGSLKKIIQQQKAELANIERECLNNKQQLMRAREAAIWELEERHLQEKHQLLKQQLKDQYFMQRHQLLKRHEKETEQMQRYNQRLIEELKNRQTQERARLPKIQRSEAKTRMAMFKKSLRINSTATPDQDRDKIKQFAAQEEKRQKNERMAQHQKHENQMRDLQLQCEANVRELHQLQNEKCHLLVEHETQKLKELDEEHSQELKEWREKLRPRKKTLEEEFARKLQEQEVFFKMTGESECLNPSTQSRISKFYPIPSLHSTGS
ALK(h), sequence (Q9UM73 whole entry): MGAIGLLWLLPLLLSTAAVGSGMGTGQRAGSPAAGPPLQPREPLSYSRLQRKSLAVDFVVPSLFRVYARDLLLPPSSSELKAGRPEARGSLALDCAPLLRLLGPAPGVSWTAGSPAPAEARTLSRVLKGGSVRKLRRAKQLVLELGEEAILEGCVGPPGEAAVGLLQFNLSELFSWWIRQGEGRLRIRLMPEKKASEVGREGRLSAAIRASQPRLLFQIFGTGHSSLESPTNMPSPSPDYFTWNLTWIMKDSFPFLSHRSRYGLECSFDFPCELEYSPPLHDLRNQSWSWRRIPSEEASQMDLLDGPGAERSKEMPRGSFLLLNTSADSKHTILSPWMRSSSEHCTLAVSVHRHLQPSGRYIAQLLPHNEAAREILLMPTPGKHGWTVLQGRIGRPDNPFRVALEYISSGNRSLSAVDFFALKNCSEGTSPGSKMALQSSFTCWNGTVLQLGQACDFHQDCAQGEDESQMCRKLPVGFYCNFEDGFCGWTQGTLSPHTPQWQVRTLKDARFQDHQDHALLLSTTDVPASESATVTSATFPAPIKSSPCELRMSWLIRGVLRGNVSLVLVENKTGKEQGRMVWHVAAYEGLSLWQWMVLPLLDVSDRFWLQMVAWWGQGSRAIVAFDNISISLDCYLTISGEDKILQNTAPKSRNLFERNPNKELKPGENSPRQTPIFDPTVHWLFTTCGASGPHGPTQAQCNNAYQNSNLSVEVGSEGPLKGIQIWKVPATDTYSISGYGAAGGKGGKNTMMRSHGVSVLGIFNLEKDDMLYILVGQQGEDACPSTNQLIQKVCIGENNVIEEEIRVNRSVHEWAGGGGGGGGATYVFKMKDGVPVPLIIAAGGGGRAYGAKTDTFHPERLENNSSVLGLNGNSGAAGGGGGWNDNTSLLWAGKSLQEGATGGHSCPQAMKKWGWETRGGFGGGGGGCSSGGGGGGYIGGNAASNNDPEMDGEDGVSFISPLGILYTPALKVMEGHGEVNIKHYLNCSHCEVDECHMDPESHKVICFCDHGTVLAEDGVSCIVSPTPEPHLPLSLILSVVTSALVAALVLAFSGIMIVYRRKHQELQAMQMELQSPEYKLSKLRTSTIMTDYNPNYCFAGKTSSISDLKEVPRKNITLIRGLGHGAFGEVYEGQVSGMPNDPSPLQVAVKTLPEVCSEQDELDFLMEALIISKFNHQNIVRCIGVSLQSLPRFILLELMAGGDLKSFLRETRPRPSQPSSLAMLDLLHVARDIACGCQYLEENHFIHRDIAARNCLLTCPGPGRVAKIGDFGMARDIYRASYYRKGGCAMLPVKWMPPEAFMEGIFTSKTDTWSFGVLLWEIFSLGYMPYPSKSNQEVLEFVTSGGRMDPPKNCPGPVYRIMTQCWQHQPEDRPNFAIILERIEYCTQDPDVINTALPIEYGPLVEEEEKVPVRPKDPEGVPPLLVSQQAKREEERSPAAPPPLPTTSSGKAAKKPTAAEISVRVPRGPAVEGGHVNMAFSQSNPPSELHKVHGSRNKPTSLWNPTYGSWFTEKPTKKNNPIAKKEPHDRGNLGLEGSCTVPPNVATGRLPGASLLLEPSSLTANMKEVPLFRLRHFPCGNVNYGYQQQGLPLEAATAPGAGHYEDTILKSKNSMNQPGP
T4 sequence (Q16654 whole entry): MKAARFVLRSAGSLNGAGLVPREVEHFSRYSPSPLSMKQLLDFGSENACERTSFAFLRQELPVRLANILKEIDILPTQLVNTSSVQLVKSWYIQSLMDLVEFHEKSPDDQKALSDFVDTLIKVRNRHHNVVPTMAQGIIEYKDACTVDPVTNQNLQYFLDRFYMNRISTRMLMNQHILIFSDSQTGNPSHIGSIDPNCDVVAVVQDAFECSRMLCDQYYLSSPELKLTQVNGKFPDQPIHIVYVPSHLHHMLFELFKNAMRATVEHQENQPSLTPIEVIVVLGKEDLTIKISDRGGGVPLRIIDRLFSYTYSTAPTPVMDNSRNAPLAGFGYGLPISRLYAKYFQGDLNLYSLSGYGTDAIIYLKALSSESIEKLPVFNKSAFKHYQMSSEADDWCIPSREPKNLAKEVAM
BTK(h), sequence (Q06187 whole entry): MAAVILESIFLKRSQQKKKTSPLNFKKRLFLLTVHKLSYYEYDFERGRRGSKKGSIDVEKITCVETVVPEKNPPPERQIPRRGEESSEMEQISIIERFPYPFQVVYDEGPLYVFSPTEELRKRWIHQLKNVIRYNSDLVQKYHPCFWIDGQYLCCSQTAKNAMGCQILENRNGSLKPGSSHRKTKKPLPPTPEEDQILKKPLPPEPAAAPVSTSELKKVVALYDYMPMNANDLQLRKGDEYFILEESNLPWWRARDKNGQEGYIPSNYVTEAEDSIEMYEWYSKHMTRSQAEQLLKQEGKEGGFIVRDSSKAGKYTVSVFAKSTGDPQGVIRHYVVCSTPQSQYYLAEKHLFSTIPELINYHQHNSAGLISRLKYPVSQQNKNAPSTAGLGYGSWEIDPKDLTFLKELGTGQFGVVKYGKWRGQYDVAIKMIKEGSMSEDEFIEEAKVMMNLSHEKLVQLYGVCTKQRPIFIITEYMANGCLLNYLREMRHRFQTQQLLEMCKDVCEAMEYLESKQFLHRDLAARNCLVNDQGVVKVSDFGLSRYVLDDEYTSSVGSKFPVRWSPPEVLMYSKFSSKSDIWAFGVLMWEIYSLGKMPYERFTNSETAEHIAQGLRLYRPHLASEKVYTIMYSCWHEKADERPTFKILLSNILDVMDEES

Take `C1=C(c2nc(-c3cnn(C4CCNCC4)c3)cn3cc(-c4ccccc4)nc23)CCOC1` [YL-939]: the remaining activity at 10 µM on JAK1(h) came out at 66%; at CDK6/cyclinD3(h), 94%; at CDK16/cyclinY(h), 80%; at SLK(h), 70%; at Haspin(h), 100%; on DNA-PK(h), 94%. Further, the remaining activity at 10 µM on FGFR4(h) is 94%; on Flt4(h) it was 85%; at ALK(h) it was 106%; on BTK(h), 83%; at ZIPK(h), 88%; on MSSK1(h), 87%. Moreover, the remaining activity at 10 µM is 88% on MOK(h); 109% on PDHK4(h); 61% on p70S6K(h); 76% on PDGFRα(h); 100% on Blk(h); 90% on CK1γ2(h). Also, the remaining activity at 10 µM at HIPK4(h) was found to be 106%; on DDR2(h) it was 95%; on CDK18/cyclinY(h), 97%; on mTOR/FKBP12(h), 88%; at KDR(h), 108%.
